The values that follow come from patent US11052142B2, “Modified endotoxic bacteria lipopolysaccharide (variants), combination of modified lipopolysaccharides (variants) and, containing same, a vaccine (variants) and a pharmaceutical composition (variants)” (priority 2013, dated 2021).

Data set [1] concerns TNF-α. Conditions: mice, i.v., extrapolated from graphs of RU 2154068, cited from earlier work.
The subject of data set [2] is TNF-α. The data set can be described thus: In vivo production of TNF-α in blood serum after i.v. administration to mice (data from patent RU 2154068). An excerpt: In this case the vertical axis represents the values for TNF-α concentrations (pg/mL) and the values for IL-6 concentrations (ng/mL). The horizontal axis represents (A and B) the values for injection dose of preparation OM174 (mg/kg) to mice. The vertical axis (C) represents the value for injection dose of LPS ([…]; positive control) and saline solution (0.85% NaCl solution; negative control) to mice.
The solid lines represent the lines of extrapolation for the values of doses for OM174: 0.20; 2.00; 2.01; 3.40 and 28.10 (A and B) and the values of doses for Westphal LPS E coli O:111B4: 0.002; 0.020; 0.200 and 2.000 (C).
According to data from patent RU 2154068, tri-acylated and tetra-acylated lipids A of E. coli, H. influenzae and P. aeruginosa are powerful inducers of mediator of endotoxin reaction—TNF-α. Table 1 represents data extrapolated from graphs on FIG. 1 (A, B, C) relating to in vivo TNF-α production in serum after i.v. administration of tri-acylated lipid A (3-acLA) of E. coli OM-174 and Westphal LPS E. coli O:111B4 to mice. Only 10-fold difference was detected for induction of TNF-α in vivo between E. coli OM-174 tri-acylated lipid A and commercially available endotoxin Westphal LPS E. coli O:111 B4, it is evidence that there is essential endotoxicity of E. coli tri-acetylated lipid A, excluding its use both as vaccine or vaccine component (adjuvant).

Read-outs that look alike come from different tables or passages of the source.

As to `CCCCCCCCCCCC(=O)O[C@H](CCCCCCCCCCC)CC(=O)N[C@H]1[C@H](OC[C@H]2O[C@H](OP(=O)(O)O)[C@H](NC(=O)C[C@H](O)CCCCCCCCCCC)[C@@H](O)[C@@H]2O)O[C@H](CO)[C@@H](OP(=O)(O)O)[C@@H]1O` [3-acLA E. coli - OM174], the TNF-α concentration was 328 pg/mL in the data set with TNF-α [1] (dose 0.2 mg/kg); 1644 pg/mL in the data set with TNF-α [1] (dose 2.0 mg/kg); 1416 pg/mL in the data set on TNF-α [1] (dose 2.01 mg/kg); 2000 pg/mL with TNF-α [1] (dose 3.4 mg/kg); 2750 pg/mL in the data set with TNF-α [1] (dose 28.1 mg/kg). In the data set on TNF-α [2], the “difference for induction of TNF-α in vivo versus Westphal LPS E. coli O:111 B4” value was determined as 10 fold.
